In PubChem BioAssay AID2060360 (Molecular Pharmacology Branch, DTP, NCI, 2025):
pIC50: −log10 of the molar value. Values joined by “and” are separate entries in the source; they are usually repeats but may differ in a detail not shown here. Equal values may be shown once.

Tested on: 282377-053-R-J1-PDC tumor spheroids, viability
Experiment: Anticancer human tumor 282377-053-R-J1-PDC patient-derived colon adenocarcinoma cell line growth inhibition [TAK]
Conditions: spheroids with HUVEC and MSC; for viability, T/C: stronger effect = lower value
Excerpt: Combinatorial screen of targeted agents with TAK-243 and ipatasertib in multi-cell type tumor spheroids
A high-throughput screen of multi-cell type tumor spheroids was designed to identify active combinations of targeted small molecules and TAK-243 or ipatasertib. Complex spheroids include a stromal component modeled by human endothelial cells (HUVEC) and fibroblasts modeled by human mesenchymal stem cells (MSCs). The concentration ranges selected for each drug and investigational agent were based upon clinically achievable concentrations if the clinical Cmax of the agent was known.
Compounds. The drugs and investigational agents: TAK-243 (785004), ipatasertib (767898), everolimus (733504), selumetinib (741078), bortezomib (756655), trametinib (758246), ixazomib (758254), vemurafenib (761431), dabrafenib (764134), sapanisertib (764658), alpelisib (765974), and copanlisib (816437), were obtained from the National Cancer Institute (NCI) Developmental Therapeutics Program Chemical Repository. The FDA-approved anticancer drug set is available from the NCI Developmental Therapeutics Program. […] The stock solutions were prepared in dimethyl sulfoxide (DMSO, Sigma-Aldrich, St. Louis, MO, cat. D2650) at 800-fold the tested concentration and stored at -70 degrees C prior to their use. All drugs and investigational agents were tested over a range starting from a high concentration at or near the clinical Cmax and decreasing in half-log increments. If the clinical Cmax for an agent had not been determined, the highest concentration tested was 10 microM.
NCI60 Cell Culture. NCI60 cell lines were obtained from the NCI Developmental Therapeutics Program Tumor Repository. For each lot of cells, the Repository performed Applied Biosystems AmpFLSTR Identifiler testing with PCR amplification to confirm consistency with the published Identifier STR profile for each cell line. Cells were kept in continuous culture for no more than 20 passages. The optimal seeding densities for each of the cell lines at each time point assessed were determined prior to performing the concentration response studies. Briefly, the NCI60 human tumor lines were grown as monolayers in RPMI 1640 medium supplemented with 10% FBS and 2 mmol/L L-glutamine.
An additional 2 lines were from the NCI60 cell line panel including melanomas, MALME-3M and SK-MEL-2. Pooled donor human umbilical vein endothelial cells (HUVEC, Lonza, cat. CC-2519) and human mesenchymal stem cells (hMSC, Lonza, cat. PT-2501) were purchased from Lonza (Walkersville, MD).
PDMR cell lines were grown in complete medium (DC medium): Dulbecco's modified Eagle's medium (DMEM)/F12 supplemented with 5% fetal bovine serum (FBS), 2 mM L-glutamine, 100 U/mL penicillin and 100 µg/ml streptomycin, 0.4 µg/ml hydrocortisone, 10 ng/ml epidermal growth factor (EGF) recombinant human protein, 24 µg/mL adenine, and 0.1 mg/mL primocin. During culture from frozen stock vials, PDMR cells were cultured in the same medium containing 10 µM Y-27632 (see Table 3). The PDCs were cultured in complete DMEM/F12 media without 10 microM Y-27632 dihydrochloride for at least two passages prior to the screen. The pooled donor HUVEC and hMSC were cultured in endothelial cell growth medium 2 (PromoCell, Heidelberg, Germany, cat. C-22011) and mesenchymal stem cell growth medium 2 (PromoCell, cat. C-28009), respectively. For all experiments, HUVEC and hMSC were used at passages </=5.
For the pre-screen, cell seeding densities were determined from a titration spanning the range from 5,000 to 313 cells per well. The mct-spheroids including 60% malignant cells, 25% HUVEC and 15% MSC dispensed as a mixture into U-bottom Ultra-Low Attachment 384-well plates (Corning, NY)
High-throughput Drug Combination Screening.
Prior to their inoculation into 384-well plates, malignant cells, HUVEC, and hMSC were removed from T flasks using TrypLE express (Thermo Fisher Scientific, cat. 12605036) and harvested by centrifugation for 5 min at 233 x g. […]

[1] = curve of first compound, second compound 0.3 µM
[2] = curve of first compound, second compound 0.949 µM
[3] = curve of first compound, second compound 3 µM
[4] = curve of first compound, second compound 9.49 µM
[5] = curve of first compound, second compound 30 µM
[6] = second compound 0.3 µM, first compound 0.0316 µM
[7] = second compound 0.3 µM, first compound 0.1 µM
[8] = second compound 0.3 µM, first compound 0.316 µM
[9] = second compound 0.3 µM, first compound 1 µM
[10] = second compound 0.949 µM, first compound 0.0316 µM
[11] = second compound 0.949 µM, first compound 0.1 µM
[12] = second compound 0.949 µM, first compound 0.316 µM
[13] = second compound 0.949 µM, first compound 1 µM
[14] = second compound 3 µM, first compound 0.0316 µM
[15] = second compound 3 µM, first compound 0.1 µM
[16] = second compound 3 µM, first compound 0.316 µM
[17] = second compound 3 µM, first compound 1 µM
[18] = second compound 9.49 µM, first compound 0.0316 µM
[19] = second compound 9.49 µM, first compound 0.1 µM
[20] = second compound 9.49 µM, first compound 0.316 µM
[21] = second compound 9.49 µM, first compound 1 µM
[22] = second compound 30 µM, first compound 0.0316 µM
[23] = second compound 30 µM, first compound 0.1 µM
[24] = second compound 30 µM, first compound 0.316 µM
[25] = second compound 30 µM, first compound 1 µM
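Further: spheroids exposed to drugs for seven days before readout.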

Q: What does the source list for `COc1c(OCCCN2CCOCC2)ccc2c3n(c(=NC(=O)c4cnc(N)nc4)nc12)CCN3` + CC(C)NCC(C(=O)N1CCN(c2ncnc3c2C(C)CC3O)CC1)c1ccc(Cl)cc1?
A: pIC50 [1]: < 6.00; pIC50 [2]: 6.17; pIC50 [3]: 6.31; pIC50 [4]: 6.74; pIC50 [5]: 7.49; viability, T/C (second compound 0.3 µM, first compound 0.00316 µM): 95%; viability, T/C (second compound 0.3 µM, first compound 0.01 µM): 96%; viability, T/C [6]: 91.8%; viability, T/C [7]: 91.1%; viability, T/C [8]: 87.9%; viability, T/C [9]: 64.3%; viability, T/C (second compound 0.949 µM, first compound 0.00316 µM): 94.9%; viability, T/C (second compound 0.949 µM, first compound 0.01 µM): 87.7%; viability, T/C [10]: 87.6%; viability, T/C [11]: 81.3%; viability, T/C [12]: 82.7%; viability, T/C [13]: 33.2%; viability, T/C (second compound 3 µM, first compound 0.00316 µM): 86.1%; viability, T/C (second compound 3 µM, first compound 0.01 µM): 88.3%; viability, T/C [14]: 80.5%; viability, T/C [15]: 78.4%; viability, T/C [16]: 73.4%; viability, T/C [17]: 13.6%; viability, T/C (second compound 9.49 µM, first compound 0.00316 µM): 82.3%; viability, T/C (second compound 9.49 µM, first compound 0.01 µM): 79.1%; viability, T/C [18]: 73.2%; viability, T/C [19]: 66.8%; viability, T/C [20]: 35.4%; viability, T/C [21]: 11.4%; viability, T/C (second compound 30 µM, first compound 0.00316 µM): 66.4%; viability, T/C (second compound 30 µM, first compound 0.01 µM): 65.8%; viability, T/C [22]: 48%; viability, T/C [23]: 29.7%; viability, T/C [24]: 8.22%; viability, T/C [25]: 4.24%

Q: Which viability, T/C (compound 31.6 pM) does the source give for `CC(C)CC(NC(=O)C(Cc1ccccc1)NC(=O)c1cnccn1)B(O)O` (configuration not stated) here?
A: The viability, T/C was 106% and 102%.

Q: And the viability, T/C (compound 0.0001 µM)?
A: Its viability, T/C is 98.4% and 102%.

Q: What about the viability, T/C (compound 0.000316 µM) of the same molecule?
A: Its viability, T/C is 99.5% and 94.6%.

Q: And the viability, T/C (compound 0.001 µM)?
A: Its viability, T/C is 109% and 101%.

Q: And the viability, T/C (compound 0.00316 µM)?
A: Its viability, T/C is 100% and 97.2%.

Q: And the viability, T/C (compound 0.01 µM)?
A: The viability, T/C was 93.2% and 81.1%.

Q: What about the pIC50 (curve of compound) of the same molecule?
A: The pIC50 was < 8.00.

Q: How did the pIC50 [1] turn out when `Cc1nc(NC(=O)N2CCCC2C(N)=O)sc1-c1ccnc(C(C)(C)C(F)(F)F)c1` (configuration not stated) + CC(C)NCC(C(=O)N1CCN(c2ncnc3c2C(C)CC3O)CC1)c1ccc(Cl)cc1 was run?
A: Its pIC50 is < 5.00.

Q: And the pIC50 [2]?
A: The pIC50 was < 5.00.

Q: What about the pIC50 [3] of the same molecule?
A: Its pIC50 is < 5.00.

Q: And the pIC50 [4]?
A: The pIC50 was < 5.00.

Q: And the pIC50 [5]?
A: Its pIC50 is 5.26.

Q: What about the viability, T/C [6] of the same molecule?
A: The viability, T/C was 99.7%.

Q: And the viability, T/C [7]?
A: Its viability, T/C is 91.4%.

Q: And the viability, T/C [8]?
A: Its viability, T/C is 91.7%.

Q: What about the viability, T/C [9] of the same molecule?
A: Its viability, T/C is 89.8%.

Q: And the viability, T/C (second compound 0.3 µM, first compound 3.16 µM)?
A: Its viability, T/C is 79.8%.

Q: And the viability, T/C (second compound 0.3 µM, first compound 10 µM)?
A: Its viability, T/C is 70.4%.

Q: What about the viability, T/C [10] of the same molecule?
A: The viability, T/C was 87.2%.

Q: And the viability, T/C [11]?
A: Its viability, T/C is 91.5%.

Q: And the viability, T/C [12]?
A: The viability, T/C was 84%.

Q: What about the viability, T/C [13] of the same molecule?
A: The viability, T/C was 81%.

Q: What about the viability, T/C (second compound 0.949 µM, first compound 3.16 µM) of the same molecule?
A: Its viability, T/C is 79.1%.

Q: What about the viability, T/C (second compound 0.949 µM, first compound 10 µM) of the same molecule?
A: Its viability, T/C is 81.3%.

Q: What about the viability, T/C [14] of the same molecule?
A: The viability, T/C was 83.5%.

Q: And the viability, T/C [15]?
A: The viability, T/C was 83.9%.

Q: And the viability, T/C [16]?
A: The viability, T/C was 80%.

Q: And the viability, T/C [17]?
A: The viability, T/C was 77.3%.

Q: And the viability, T/C (second compound 3 µM, first compound 3.16 µM)?
A: Its viability, T/C is 76.3%.

Q: And the viability, T/C (second compound 3 µM, first compound 10 µM)?
A: The viability, T/C was 77.3%.

Q: What about the viability, T/C [18] of the same molecule?
A: The viability, T/C was 81.7%.

Q: And the viability, T/C [19]?
A: The viability, T/C was 81%.

Q: And the viability, T/C [20]?
A: Its viability, T/C is 76.1%.

Q: And the viability, T/C [21]?
A: The viability, T/C was 75.8%.

Q: What about the viability, T/C (second compound 9.49 µM, first compound 3.16 µM) of the same molecule?
A: Its viability, T/C is 69.6%.

Q: What about the viability, T/C (second compound 9.49 µM, first compound 10 µM) of the same molecule?
A: The viability, T/C was 64%.

Q: And the viability, T/C [22]?
A: The viability, T/C was 71.7%.

Q: And the viability, T/C [23]?
A: The viability, T/C was 69.8%.

Q: What about the viability, T/C [24] of the same molecule?
A: Its viability, T/C is 66.4%.

Q: And the viability, T/C [25]?
A: The viability, T/C was 58%.

Q: And the viability, T/C (second compound 30 µM, first compound 3.16 µM)?
A: The viability, T/C was 56.1%.

Q: And the viability, T/C (second compound 30 µM, first compound 10 µM)?
A: Its viability, T/C is 45.1%.
